The source of these data is ChEMBL document CHEMBL1147549, “Imidazole acetic acid TAFIa inhibitors: SAR studies centered around the basic P(1)(') group” (Bioorg Med Chem Lett, 2004).

pIC50: −log10 of the molar value.

Test [1] has as its target T1, Carboxypeptidase B2 (Homo sapiens, UniProt Q96IY4).
T1 sequence (Q96IY4 whole entry): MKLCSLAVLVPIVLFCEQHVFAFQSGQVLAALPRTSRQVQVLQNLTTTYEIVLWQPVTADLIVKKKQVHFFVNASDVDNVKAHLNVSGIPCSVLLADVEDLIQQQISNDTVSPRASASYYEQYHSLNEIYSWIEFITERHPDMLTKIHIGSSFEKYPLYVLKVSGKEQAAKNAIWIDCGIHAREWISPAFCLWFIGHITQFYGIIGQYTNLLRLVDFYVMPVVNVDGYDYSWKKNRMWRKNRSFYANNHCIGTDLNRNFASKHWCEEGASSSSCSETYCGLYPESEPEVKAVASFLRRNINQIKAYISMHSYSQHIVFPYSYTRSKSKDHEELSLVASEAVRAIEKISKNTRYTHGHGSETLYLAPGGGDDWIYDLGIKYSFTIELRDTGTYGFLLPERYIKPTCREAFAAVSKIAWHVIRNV
Put plainly: Inhibitory potency against human TAFIa (thrombin-activatable fibrinolysis inhibitor).

The target in test [2] is T2, Carboxypeptidase B (Homo sapiens, UniProt P15086).
T2 sequence (P15086 whole entry): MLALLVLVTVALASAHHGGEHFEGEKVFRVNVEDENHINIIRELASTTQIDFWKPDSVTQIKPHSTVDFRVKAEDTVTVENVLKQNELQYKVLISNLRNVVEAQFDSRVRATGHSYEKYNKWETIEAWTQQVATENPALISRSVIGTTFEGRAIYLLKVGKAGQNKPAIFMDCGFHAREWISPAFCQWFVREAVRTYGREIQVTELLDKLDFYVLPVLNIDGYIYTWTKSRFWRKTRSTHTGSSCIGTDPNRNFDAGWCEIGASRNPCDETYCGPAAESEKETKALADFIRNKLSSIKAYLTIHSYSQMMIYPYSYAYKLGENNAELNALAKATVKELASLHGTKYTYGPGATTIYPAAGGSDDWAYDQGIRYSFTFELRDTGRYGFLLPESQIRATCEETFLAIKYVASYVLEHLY
Kind of test: Inhibition of human carboxypeptidase B (CPB).

The nature of test [3]: Concentration providing 50% acceleration of clot lysis in pooled human plasma. It counts as functional.
The species named for test [4] is Homo sapiens. Kind of test: Selectivity for TAFIa versus CPB carboxypeptidase B isoforms.

As for `O=C(O)C(CC1CCNC1)c1c[nH]cn1` (configuration not stated), in test [1], the pIC50 (in general, the IC50 on a negative log10 scale, so that one unit is a factor of ten) was less than 4.70.

Regarding `CC(C)CCn1cnc(C(CCCCN)C(=O)O)c1` (configuration not stated), the pIC50 in test [2] was 6.80; in test [1] it was 7.62. Moreover, the CLT50 in test [3] is 0.21 µM. Besides, the Selectivity in test [4] is 6.7.

`Nc1cccc(CC(C(=O)O)c2cnc[nH]2)n1` (configuration not stated) had a pIC50 in test [1] of 4.82.

In test [1], `O=C(O)C(CC1CNC1)c1cnc[nH]1` (configuration not stated) gave a pIC50 of less than 4.70.

Compound `NCCCCCC(C(=O)O)c1cnc[nH]1` (configuration not stated) gave a negative logarithm of the IC50 (pIC50) in test [1] of 5.33.

`Cc1nc(N)ccc1CC(C(=O)O)c1c[nH]cn1` (configuration not stated): in test [1], the negative-log IC50 (pIC50) was 5.24.

For `NC1CCC(CC(C(=O)O)c2cnc[nH]2)CC1` (configuration not stated), the pIC50 in test [1] is 5.15. The pIC50 values of the last two compounds are within 0.2 log units of each other.

In test [1], `Nc1cc(CC(C(=O)O)c2c[nH]cn2)ccn1` (configuration not stated) gave a pIC50 of 4.92.

As to `Nc1ncc(CC(C(=O)O)c2c[nH]cn2)cc1F` (configuration not stated), the pIC50 in test [1] was 5.17.

`Cc1cc(CC(C(=O)O)c2cn(CCC(C)(C)C)cn2)cnc1N` (configuration not stated): the negative-log IC50 (pIC50) is 9.00 in test [2] and 7.92 in test [1]. In addition, the CLT50 in test [3] was 0.159 µM. The same compound showed a Selectivity in test [4] of 0.08.

As to `CC(C)CCn1cnc(C(Cc2ccc(N)nc2)C(=O)O)c1` (configuration not stated), the negative-log IC50 (pIC50) in test [2] was 8.40. Besides, in test [3], the CLT50 entry was “==0.12 uM”.

As to `CC(CN)CCC(C(=O)O)c1cnc[nH]1` (configuration not stated), the negative-log IC50 (pIC50) in test [2] is 5.82; in test [1], 6.57.

`Nc1ccc(CC(C(=O)O)c2c[nH]cn2)cn1` (configuration not stated) had a pIC50 in test [2] of 7.15. This compound also showed a CLT50 in test [3] of 0.97 µM.

Regarding `O=C(O)C(CCC1CCNCC1)c1c[nH]cn1` (configuration not stated), the pIC50 in test [1] is less than 4.70.

The compound `O=C(O)C(CC1CCCNCC1)c1c[nH]cn1` (configuration not stated) showed a pIC50 in test [1] of less than 4.70.

The compound `CN(C)CCCCC(C(=O)O)c1cnc[nH]1` (configuration not stated) showed a pIC50 in test [1] of less than 4.30.

For `Cc1cc(CC(C(=O)O)c2cn(CCC(C)C)cn2)cnc1N` (configuration not stated), the pIC50 was 9.00 in test [2] and 7.64 in test [1]. Further, in test [3], the CLT50 was 0.17 µM. The compound also returned a Selectivity in test [4] of 0.04.

Consider `NCCCC(C(=O)O)c1cnc[nH]1` (configuration not stated), for which the pIC50 in test [1] was 5.17.

For `O=C(O)C(CCC1CCCNCC1)c1cnc[nH]1` (configuration not stated), the negative logarithm of the IC50 (pIC50) in test [1] was less than 4.70.

In test [1], `CNc1ccc(CC(C(=O)O)c2cnc[nH]2)cn1` (configuration not stated) gave a negative-log IC50 (pIC50) of 4.89.

`O=C(O)C(Cc1ccc2nccn2c1)c1cnc[nH]1` (configuration not stated) had a negative-log IC50 (pIC50) in test [1] of 5.48.

Take `CC(CN)CCC(C(=O)O)c1c[nH]cn1` (configuration not stated): the Selectivity in test [4] amounted to 5.6.

As for `Cc1cc(CC(C(=O)O)c2c[nH]cn2)cnc1N` (configuration not stated), the pIC50 in test [2] was 7.70; in test [1], 7.00. In test [3], this compound registered a CLT50 of 2.1 µM. For the same compound, in test [4], the Selectivity is 0.2.

Regarding `CNCCCCC(C(=O)O)c1cnc[nH]1` (configuration not stated), the negative logarithm of the IC50 (pIC50) in test [1] is 4.59.

`O=C(O)C(CCC1CNC1)c1cnc[nH]1` (configuration not stated) had a negative logarithm of the IC50 (pIC50) in test [1] of less than 4.70.

In test [1], `Cc1cc(N)ncc1CC(C(=O)O)c1c[nH]cn1` (configuration not stated) gave a pIC50 of 5.82.

As for `CC(C)(C)CCn1cnc(C(C[C@H]2CC[C@H](N)C2)C(=O)O)c1` (some centres not stated), the negative-log IC50 (pIC50) in test [2] and in test [1] was 9.00 in each case. The compound further registered a CLT50 in test [3] of 0.014 µM. The compound also yielded a Selectivity in test [4] of 1.

`O=C(O)C(CC1CCNCC1)c1cnc[nH]1` (configuration not stated) gave a negative logarithm of the IC50 (pIC50) in test [1] of less than 4.70.

For `Nc1ncc(CC(C(=O)O)c2cnc[nH]2)cc1Cl` (configuration not stated), in test [1], the pIC50 was 5.28.

As to `NC1CCCC(CC(C(=O)O)c2c[nH]cn2)C1` (configuration not stated), the pIC50 in test [1] was less than 4.70.

Take `CC(C)(CN)CCC(C(=O)O)c1c[nH]cn1` (configuration not stated): the pIC50 in test [2] was 6.22; in test [1], 6.42. In test [4], this compound displayed a Selectivity of 1.6.

As to `O=C(O)C(CCC1CCNC1)c1cnc[nH]1` (configuration not stated), the negative logarithm of the IC50 (pIC50) in test [1] is less than 4.70.

On to `NCCCCC(C(=O)O)c1c[nH]cn1` (configuration not stated), for which the negative-log IC50 (pIC50) in test [2] is 5.43; in test [1], 6.23. The CLT50 entry in test [3] was “>=20 uM”. In test [4], this compound yielded a Selectivity of 6.3.

Compound `Nc1ncc(CC(C(=O)O)c2c[nH]cn2)cn1` (configuration not stated) had a negative-log IC50 (pIC50) in test [1] of 4.17.
